What was measured:
[1] = target: ErbB2 V777L (Homo sapiens (Human), UniProt P04626, V777L); assay: ErbB enzyme assay (CisBio HTRF-KinEASE-TK), ErbB2 V777L; type: biochemical
Summary of the method: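 HTRF KinEASE-TK tyrosine-kinase read-out of substrate phosphorylation after a final 1 h at ambient temperature, from the 655/620 nm emission ratio.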

[2] = target: EGFR WT (Homo sapiens (Human), UniProt P00533); assay: ErbB enzyme assay (CisBio HTRF-KinEASE-TK), EGFR WT; type: biochemical; settings: ATP at Km (25 μM), 1 h incubation
EGFR WT, sequence (P00533 25-1210): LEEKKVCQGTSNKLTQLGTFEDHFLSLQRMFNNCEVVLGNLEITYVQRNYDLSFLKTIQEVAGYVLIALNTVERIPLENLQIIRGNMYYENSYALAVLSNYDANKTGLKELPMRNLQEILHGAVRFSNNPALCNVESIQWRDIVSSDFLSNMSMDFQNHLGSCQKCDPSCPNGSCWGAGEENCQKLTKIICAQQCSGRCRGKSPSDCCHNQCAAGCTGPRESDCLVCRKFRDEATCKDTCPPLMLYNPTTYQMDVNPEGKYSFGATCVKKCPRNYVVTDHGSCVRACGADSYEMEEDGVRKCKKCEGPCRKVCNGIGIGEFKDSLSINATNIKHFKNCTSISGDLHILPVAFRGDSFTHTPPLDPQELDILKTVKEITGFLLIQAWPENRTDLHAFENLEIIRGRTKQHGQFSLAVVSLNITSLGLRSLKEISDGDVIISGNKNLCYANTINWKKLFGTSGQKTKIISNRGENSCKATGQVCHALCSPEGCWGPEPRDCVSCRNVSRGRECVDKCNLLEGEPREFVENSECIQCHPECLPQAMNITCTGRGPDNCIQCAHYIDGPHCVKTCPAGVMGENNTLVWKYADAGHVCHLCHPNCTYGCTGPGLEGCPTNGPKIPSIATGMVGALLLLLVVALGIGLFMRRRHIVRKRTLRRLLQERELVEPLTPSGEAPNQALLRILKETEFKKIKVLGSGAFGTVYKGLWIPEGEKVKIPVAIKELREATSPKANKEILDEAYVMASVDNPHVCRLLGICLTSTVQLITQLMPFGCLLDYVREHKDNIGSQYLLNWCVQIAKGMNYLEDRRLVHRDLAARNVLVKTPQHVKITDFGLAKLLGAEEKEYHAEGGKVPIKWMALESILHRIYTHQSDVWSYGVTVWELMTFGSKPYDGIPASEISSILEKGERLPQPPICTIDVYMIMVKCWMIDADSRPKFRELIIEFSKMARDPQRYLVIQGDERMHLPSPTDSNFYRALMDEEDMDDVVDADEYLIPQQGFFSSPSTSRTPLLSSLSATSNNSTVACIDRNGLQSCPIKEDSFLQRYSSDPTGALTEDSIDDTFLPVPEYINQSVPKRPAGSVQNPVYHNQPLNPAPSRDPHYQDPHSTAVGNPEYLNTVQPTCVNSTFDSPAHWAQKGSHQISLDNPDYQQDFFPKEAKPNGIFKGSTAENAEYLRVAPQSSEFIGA
Summary of the method: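 Tyrosine kinase HTRF, 1 h RT reaction → quench (Sa-XL665/TK-Ab-Cryptate) → 1 h RT → 655/620 ratio.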

ErbB2 V777L, sequence (P04626 23-1255 V777L): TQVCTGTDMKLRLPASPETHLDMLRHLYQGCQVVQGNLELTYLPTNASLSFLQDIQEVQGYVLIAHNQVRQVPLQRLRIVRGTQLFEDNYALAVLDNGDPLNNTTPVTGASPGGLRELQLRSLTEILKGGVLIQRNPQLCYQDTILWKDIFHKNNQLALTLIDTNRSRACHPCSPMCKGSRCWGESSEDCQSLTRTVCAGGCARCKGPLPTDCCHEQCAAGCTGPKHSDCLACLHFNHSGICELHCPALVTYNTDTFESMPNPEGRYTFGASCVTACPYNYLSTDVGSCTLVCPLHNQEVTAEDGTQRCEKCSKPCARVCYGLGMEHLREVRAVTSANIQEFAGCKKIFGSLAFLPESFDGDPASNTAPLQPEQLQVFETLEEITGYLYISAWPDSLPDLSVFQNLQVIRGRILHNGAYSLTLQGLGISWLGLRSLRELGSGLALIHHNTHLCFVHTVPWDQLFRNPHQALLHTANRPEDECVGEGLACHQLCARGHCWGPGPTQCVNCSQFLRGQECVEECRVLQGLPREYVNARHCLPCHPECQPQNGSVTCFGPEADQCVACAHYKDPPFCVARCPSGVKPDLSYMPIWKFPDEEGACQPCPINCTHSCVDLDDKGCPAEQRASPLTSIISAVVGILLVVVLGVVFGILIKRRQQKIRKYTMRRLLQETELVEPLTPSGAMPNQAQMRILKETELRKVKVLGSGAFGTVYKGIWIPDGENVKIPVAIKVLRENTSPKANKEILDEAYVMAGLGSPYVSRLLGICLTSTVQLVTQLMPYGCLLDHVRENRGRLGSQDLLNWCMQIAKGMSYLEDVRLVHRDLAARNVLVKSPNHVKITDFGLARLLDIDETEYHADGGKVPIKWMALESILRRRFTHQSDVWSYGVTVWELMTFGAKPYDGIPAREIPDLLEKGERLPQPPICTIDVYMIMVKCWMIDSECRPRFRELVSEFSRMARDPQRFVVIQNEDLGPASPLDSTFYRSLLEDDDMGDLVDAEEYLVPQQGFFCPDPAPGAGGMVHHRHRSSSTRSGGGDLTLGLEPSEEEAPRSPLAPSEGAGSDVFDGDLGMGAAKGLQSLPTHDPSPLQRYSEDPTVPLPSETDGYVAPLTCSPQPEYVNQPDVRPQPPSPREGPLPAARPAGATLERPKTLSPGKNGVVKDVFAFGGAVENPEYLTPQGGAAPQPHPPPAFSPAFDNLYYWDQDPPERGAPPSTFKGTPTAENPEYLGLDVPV

SMILES | IC50 [1] | IC50 [2]
C=CC(=O)N1CCN(c2ncc3ncnc(Nc4ccc(Oc5ccc6c(c5)nnn6C)c(C)c4)c3n2)CC[C@H]1C [Compound 152, (R)-1-(7-methyl-4-(8-((3-methyl-4-((1-methyl-1H-benzo[d][1,2,3]triazol-5-yl)oxy)phenyl)amino)pyrimido[5,4-d]pyrimidin-2-y1)-1,4-diazepan-1-yl)prop-2-en-1-one] | 500 to 1000 nM | ≥ 1000 nM
C=CC(=O)N1CCN(c2ncc3ncnc(Nc4cc(C)c(Oc5cc(F)c6c(c5)nnn6C)cc4OC)c3n2)C[C@H]1C [Compound 164, (R)-1-(4-(8-((4-((7-fluoro-1-methyl-1H-benzo[d][1,2,3]triazol-5-yl)oxy)-2-methoxy-5-methylphenyl)amino)pyrimido[5,4-d]pyrimidin-2-y1)-2-methylpiperazin-1-yl)prop-2-en-1-one] | 500 to 1000 nM | 500 to 1000 nM
C=CC(=O)N1CCN(c2ncc3ncnc(Nc4ccc(Oc5ccc6c(c5)nnn6C)c(C)c4F)c3n2)CC[C@@H]1C [Compound 169, (S)-1-(4-(8-((2-fluoro-3-methyl-4-((1-methyl-1H-benzo[d][1,2,3]triazol-5-yl)oxy)phenyl)amino)pyrimido[5,4-d]pyrimidin-2-y1)-7-methyl-1,4-diazepan-1-yl)prop-2-en-1-one] | 100 to 500 nM | 500 to 1000 nM
C=CC(=O)N[C@@H]1CCCCN(c2ncc3ncnc(Nc4ccc(Oc5ccc6c(c5)nnn6C)c(C)c4F)c3n2)C1 [Compound 170, (R)-N-(1-(8-((2-fluoro-3-methyl-4-((1-methyl-1H-benzo[d][1,2,3]triazol-5-yl)oxy)phenyl)amino)pyrimido[5,4-d]pyrimidin-2-yl)azepan-3-yl)acrylamide] | 100 to 500 nM | 100 to 500 nM

Other lines, results leading:

IC50 [1] | IC50 [2] | SMILES
100 to 500 nM | 500 to 1000 nM | C=CC(=O)N1CCN(c2ncc3ncnc(Nc4cc(C)c(Oc5ccc6c(c5)nnn6C)c(F)c4)c3n2)C[C@H]1C [Compound 155, (R)-1-(4-(8-((3-fluoro-5-methyl-4-((1-methyl-1H-benzo[d][1,2,3]triazol-5-yl)oxy)phenyl)amino)pyrimido[5,4-d]pyrimidin-2-y1)-2-methylpiperazin-1-yl)prop-2-en-1-one]
100 to 500 nM | 100 to 500 nM | C=CC(=O)N1CCN(c2ncc3ncnc(Nc4ccc(Oc5ccc6c(c5)nnn6C)c(C)c4F)c3n2)C[C@H]1C [Compound 156, (R)-1-(4-(8-((2-fluoro-3-methyl-4-((1-methyl-1H-benzo[d][1,2,3]triazol-5-yl)oxy)phenyl)amino)pyrimido[5,4-d]pyrimidin-2-y1)-2-methylpiperazin-1-yl)prop-2-en-1-one]
50 to 100 nM | 100 to 500 nM | C=CC(=O)N[C@@H]1CCCN(c2ncc3ncnc(Nc4ccc(Oc5ccc6c(c5)nnn6C)c(C)c4F)c3n2)C1 [Compound 157, (R)-N-(1-(8-((2-fluoro-3-methyl-4-((1-methyl-1H-benzo[d][1,2,3]triazol-5-yl)oxy)phenyl)amino)pyrimido[5,4-d]pyrimidin-2-yl)piperidin-3-yl)acrylamide]
100 to 500 nM | 100 to 500 nM | C=CC(=O)N1CCN(c2ncc3ncnc(Nc4ccc(Oc5cnc6c(c5)ncn6C)c(C)c4F)c3n2)C[C@H]1C [Compound 158, (R)-1-(4-(8-((2-fluoro-3-methyl-4-((3-methyl-3H-imidazo[4,5-b]pyridin-6-yl)oxy)phenyl)amino)pyrimido[5,4-d]pyrimidin-2-y1)-2-methylpiperazin-1-yl)prop-2-en-1-one]
100 to 500 nM | < 50 nM | C=CC(=O)N1C[C@H]2C[C@@H]1CN(c1ncc3ncnc(Nc4ccc(Oc5cc(F)c6c(c5)ncn6C)c(C)c4F)c3n1)C2 [Compound 167, 1-((1S,5R)-3-(8-((2-fluoro-4-((7-fluoro-1-methyl-1H-benzo[d]imidazol-5-y1)oxy)-3-methylphenyl)amino)pyrimido[5,4-d]pyrimidin-2-yl)-3,6-diazabicyclo[3.2.1]octan-6-yl)prop-2-en-1-one]

Reference: patent publication US20250129078A1, “ERBB2 INHIBITORS” (Cogent Biosciences, Inc., priority 2023, published 2025)
